Read-outs that look alike come from different tables or passages of the source.
Experiments:
C57BL/6 DIO mice [1] = test: Body weights of C57BL/6 DIO mice during daily treatment; format: in vivo; conditions: Celastrol 0.2 mg/kg IP daily; for Body weights (expressed as a percentage of day-1 weight) / Body weights (in grams): Belaronib 0.3 mg/kg SC, mean
C57BL/6 DIO mice [2] = test: Daily food intake of C57BL/6 DIO mice; format: in vivo; conditions: for Food intake (food weights in g/day): Belaronib 0.3 mg/kg SC, Celastrol 0.2 mg/kg IP daily, mean
Procedure: (§1) C57BL/6 mice were treated with test compound (Celastrol) or controls as shown in the table below from Day 1 to Day 15. […] One mouse was excluded from the study because it appeared resistant to nestlet shredding prior to treatment.
(§2) Male C57BL/6 DIO mice were obtained from Jackson Labs (Bar Harbor, ME). The mice arrived at ages 17 weeks and mice were housed 3 per cage on arrival. Prior to dosing in the study, the mice were singly housed.
(§3) All treatment volumes were 10 mL/kg. Utilizing the art-recognized nestlet shredding mouse model, […]. Celastrol and the vehicle control were administered intraperitoneally using a 30G needle. Beloranib was administered subcutaneously using a 30G needle. All treatments were administered daily in the afternoon at 17:00 h, 1 hour before dark cycle from Day 1 to end of dosing.
(§4) Celastrol was dissolved in a pharmaceutically-acceptable excipient, e.g., 50% Solutol/50% DMAC, and this stock solution aliquoted and stored at −80° C. until treatment day. On the day of treatment, an aliquot of the stock solution was thawed and diluted […] with saline to obtain the desired dosing solution strength in 5% Solutol/5% dimethylacetamide/90% saline. The vehicle control was 5% Solutol/5% dimethylacetamide/90% saline. Beloranib was dissolved in 100% DMSO, and this stock solution was aliquoted and stored at −80° C. until treatment day. On the day of treatment, an aliquot of the stock solution was thawed and diluted 1:10 with deionized (DI) water to obtain the desired dosing solution strength in 10% DMSO.
Daily food intake was calculated based on remaining food weight compared to food weight on the previous day using an Ohaus model CS 200 balance.

C57BL/6 DIO mice [3] = test: Nestlet shredding test in C57BL/6 DIO mice; format: in vivo; conditions: Belaronib 0.3 mg/kg SC, Celastrol 0.2 mg/kg IP daily, mean
Procedure: as §1, §2, §3, §4
The nestlet shredding test is an art-recognized animal model for human repetitive, anxiety, and/or compulsive behaviors. In the nestlet shredding test, a nestlet comprised of pulped fiber, e.g., cotton fiber, is preweighed and placed on top of cage bedding and the amount of the nestlet remaining intact after a test session of pre-determined time is evaluated.
Nestlet shredding was determined on day 1, day 6, day 11 and day 15 by placing a fresh nestlet prior to the dark cycle and measuring the weight of the remaining nestlet at 12 and 24 hours on an Ohaus model CS 200 balance. Percent shredding was calculated based on the initial nestlet weight.

Participants with PWS = conditions: cited from earlier work; for weight change, mean difference: p<0.0001

With `CO[C@@H]1[C@H](OC(=O)/C=C/c2ccc(OCCN(C)C)cc2)CC[C@]2(CO2)[C@H]1[C@@]1(C)O[C@@H]1CC=C(C)C` [Belaronib, Beloranib, reference compound] the “Body weights (expressed as a percentage of day-1 weight)” value (C57BL/6 DIO mice [1]; Day 1) was 100.0%, the “Body weights (in grams)” value (C57BL/6 DIO mice [1]; Day 1) was 46.4 grams and the “Body weights (expressed as a percentage of day-1 weight)” value (C57BL/6 DIO mice [1]; Day 2) was 98.0%. The “Body weights (in grams)” value (C57BL/6 DIO mice [1]; Day 2) was 45.5 grams, the “Body weights (expressed as a percentage of day-1 weight)” value (C57BL/6 DIO mice [1]; Day 3) was 96.1% and the “Body weights (in grams)” value (C57BL/6 DIO mice [1]; Day 3) was 44.6 grams. For the same molecule, the “Body weights (expressed as a percentage of day-1 weight)” value (C57BL/6 DIO mice [1]; Day 4) was 94.0%, the “Body weights (in grams)” value (C57BL/6 DIO mice [1]; Day 4) was 43.6 grams and the “Body weights (expressed as a percentage of day-1 weight)” value (C57BL/6 DIO mice [1]; Day 5) was 91.0%. For the same molecule, the “Body weights (in grams)” value (C57BL/6 DIO mice [1]; Day 5) was 42.2 grams, the “Body weights (expressed as a percentage of day-1 weight)” value (C57BL/6 DIO mice [1]; Day 6) was 87.7% and the “Body weights (in grams)” value (C57BL/6 DIO mice [1]; Day 6) was 40.7 grams. For the same molecule, the “Body weights (expressed as a percentage of day-1 weight)” value (C57BL/6 DIO mice [1]; Day 7) was 85.2%, the “Body weights (in grams)” value (C57BL/6 DIO mice [1]; Day 7) was 39.5 grams and the “Body weights (expressed as a percentage of day-1 weight)” value (C57BL/6 DIO mice [1]; Day 8) was 83.1%. The “Body weights (in grams)” value (C57BL/6 DIO mice [1]; Day 8) was 38.5 grams, the “Body weights (expressed as a percentage of day-1 weight)” value (C57BL/6 DIO mice [1]; Day 9) was 80.6% and the “Body weights (in grams)” value (C57BL/6 DIO mice [1]; Day 9) was 37.4 grams. The “Body weights (expressed as a percentage of day-1 weight)” value (C57BL/6 DIO mice [1]; Day 10) was 79.2%, the “Body weights (in grams)” value (C57BL/6 DIO mice [1]; Day 10) was 36.7 grams and the “Body weights (expressed as a percentage of day-1 weight)” value (C57BL/6 DIO mice [1]; Day 11) was 77.9%. For the same molecule, the “Body weights (in grams)” value (C57BL/6 DIO mice [1]; Day 11) was 36.1 grams, the “Body weights (expressed as a percentage of day-1 weight)” value (C57BL/6 DIO mice [1]; Day 12) was 77.1% and the “Body weights (in grams)” value (C57BL/6 DIO mice [1]; Day 12) was 35.7 grams. For the same molecule, the “Body weights (expressed as a percentage of day-1 weight)” value (C57BL/6 DIO mice [1]; Day 13) was 76.2%, the “Body weights (in grams)” value (C57BL/6 DIO mice [1]; Day 13) was 35.3 grams and the “Body weights (expressed as a percentage of day-1 weight)” value (C57BL/6 DIO mice [1]; Day 14) was 75.2%. The “Body weights (in grams)” value (C57BL/6 DIO mice [1]; Day 14) was 34.8 grams, the “Body weights (expressed as a percentage of day-1 weight)” value (C57BL/6 DIO mice [1]; Day 15) was 74.4% and the “Body weights (in grams)” value (C57BL/6 DIO mice [1]; Day 15) was 34.5 grams. For the same molecule, the “body weight lost (percentage of day 1 body weight)” value (C57BL/6 DIO mice [1]; at day 15, Beloranib 0.3 mg/kg SC, vehicle-treated mice lost 15.5%) was 25.6%, the “cumulative food intake, average total for the study” value (C57BL/6 DIO mice [2]; 15-day study, Beloranib 0.3 mg/kg SC, celastrol 0.2 mg/kg IP daily, vehicle 32.6 g) was 28.1 g/mouse and the “effect on food intake (in words)” value (C57BL/6 DIO mice [2]; Celastrol compared with positive control Beloranib) was “rebounded”. For the same molecule, the “Food intake (food weights in g/day)” value (C57BL/6 DIO mice [2]; Day 1) was 3.1 g/day, the “Food intake (food weights in g/day)” value (C57BL/6 DIO mice [2]; Day 2) was 1.5 g/day and the “Food intake (food weights in g/day)” value (C57BL/6 DIO mice [2]; Day 3) was 2.3 g/day. The “Food intake (food weights in g/day)” value (C57BL/6 DIO mice [2]; Day 4) was 1.9 g/day, the “Food intake (food weights in g/day)” value (C57BL/6 DIO mice [2]; Day 5) was 1.4 g/day and the “Food intake (food weights in g/day)” value (C57BL/6 DIO mice [2]; Day 6) was 1.2 g/day. For the same molecule, the “Food intake (food weights in g/day)” value (C57BL/6 DIO mice [2]; Day 7) was 1.1 g/day, the “Food intake (food weights in g/day)” value (C57BL/6 DIO mice [2]; Day 8) was 1.5 g/day and the “Food intake (food weights in g/day)” value (C57BL/6 DIO mice [2]; Day 9) was 1.1 g/day. The “Food intake (food weights in g/day)” value (C57BL/6 DIO mice [2]; Day 10) was 1.9 g/day, the “Food intake (food weights in g/day)” value (C57BL/6 DIO mice [2]; Day 11) was 2.2 g/day and the “Food intake (food weights in g/day)” value (C57BL/6 DIO mice [2]; Day 12) was 2.6 g/day. For the same molecule, the “Food intake (food weights in g/day)” value (C57BL/6 DIO mice [2]; Day 13) was 2.2 g/day, the “Food intake (food weights in g/day)” value (C57BL/6 DIO mice [2]; Day 14) was 2.2 g/day and the “Food intake (food weights in g/day)” value (C57BL/6 DIO mice [2]; Day 15) was 2.1 g/day. For the same molecule, the “food intake after rebound, similar to vehicle” value (C57BL/6 DIO mice [2]; day 10-11, 0.3 mg/kg SC daily) was 2.2 g/day/mouse, the “food intake, nadir” value (C57BL/6 DIO mice [2]; reduction initiated on day 2-3, 0.3 mg/kg SC daily) was 1.1 g/day/mouse and the “Nestlet Shredding (percent of nestlet shredded)” value (C57BL/6 DIO mice [3]; Day 1, 12 hour) was 95.5%. For the same molecule, the “Nestlet Shredding (percent of nestlet shredded)” value (C57BL/6 DIO mice [3]; Day 6, 12 hour) was 11.9%, the “Nestlet Shredding (percent of nestlet shredded)” value (C57BL/6 DIO mice [3]; Day 6, 24 hour) was 15.7% and the “Nestlet Shredding (percent of nestlet shredded)” value (C57BL/6 DIO mice [3]; Day 11, 12 hour) was 3.8%. The “Nestlet Shredding (percent of nestlet shredded)” value (C57BL/6 DIO mice [3]; Day 11, 24 hour) was 5.2%, the “Nestlet Shredding (percent of nestlet shredded)” value (C57BL/6 DIO mice [3]; Day 15, 12 hour) was 27.6% and the “Nestlet Shredding (percent of nestlet shredded)” value (C57BL/6 DIO mice [3]; Day 15, 24 hour) was 32.9%. The “weight change, mean difference” value (Participants with PWS; 1.8 mg beloranib injection biweekly for 26 weeks, 95% CI −10.8 to −5.6) was −8.2%, the “most frequent adverse event” value (Participants with PWS; 1.8 mg or 2.4 mg injection biweekly) was “Injection site bruising” and the “weight change, mean difference” value (Participants with PWS; 2.4 mg beloranib injection biweekly for 26 weeks, 95% CI −12.1 to −6.8) was −9.5%. For the same molecule, the “venous thrombotic events in beloranib-treated participants” value (Participants with PWS; imbalance compared to placebo, dosing stopped early) was “two fatal events of pulmonary embolism and two events of deep vein thrombosis”.
